According to PMC8165439, “Chymase Dependent Pathway of Angiotensin II Generation and Rapeseed Derived Peptides for Antihypertensive Treatment of Spontaneously Hypertensive Rats” (Frontiers in Pharmacology, 2021):

Tests used:
[1] = test system: anesthetized spontaneously hypertensive rats (SHR); assay: Acute infusion of chymostatin to anesthetized rats, mean arterial blood pressure; type: in vivo, rat; settings: anesthetized adult SHR, chymostatin 2 mg/kg iv infusion 1 h, n = 7; decrease observed 30 min after cessation of infusion
Description: In acute experiments rats were anesthetized with intraperitoneal (ip) sodium thiopental (100 mg/kg; Sandoz GmbH, Kundl, Austria), which provided stable anesthesia for about 4 h. All surgical preparations were already described in detail ([Gawrys et al., 2014]; [Badzynska et al., 2020]). Throughout the experiment the temperature of the animal was kept constant (37°C). A cannula was placed in the trachea to ensure a free airway. The jugular vein was cannulated for infusion of fluids and drugs; during surgical preparations 3% bovine albumin in Ringer solution was infused at 10 ml/kg/h. For mean arterial blood pressure (MBP) measurement, a Teflon catheter was placed in the femoral artery (Stoelting Blood Pressure Meter, Wood Dale, IL, United States). After surgical preparations and stabilization of all parameters, a short control period (30 min) was made to obtain baseline for measured parameters. Chymostatin or its solvent (final concentration of DMSO was 0.05%) were administered for 1 h. After cessation of chymostatin infusion, a recovery period (30 min) was made. In the end, the animals were sacrificed by sodium thiopental overdose (iv); and vital life signs (blood pressure, breathing) were monitored until death.

[2] = test system: spontaneously hypertensive rats (SHR); assay: Glomerulosclerosis index (GSI) after chronic treatment; type: in vivo, rat; settings: after 14 days daily iv CH 2, RIY 7.5, VWIS 12.5 mg/kg/day, mean ± SEM, n = 5
Description: (§1) After the chronic experiment rats were anesthetized with sodium thiopental (100 mg/kg, ip, Sandoz GmbH, Kundl, Austria) and the heart, kidney and tibia were harvested for morphologic analysis. Additionally, left ventricular hypertrophy was assessed: the hearts were immediately harvested, dried with filter paper, and weighed. Then the left ventricle (LV) was carefully excised and weighed again. Left ventricular hypertrophy was assessed based on the ratio of LV mass to tibia length (LV/tibia).
The kidneys were fixed in 4% buffered formalin, embedded in paraffin and stained with hematoxylin/eosin for morphology evaluation. Glomerulosclerosis/hyalinosis index (GSI) was defined as segmental solidification of the glomerular capillary tuft, segmental collapse, obliteration of capillary lumen and accumulation of hyaline. Fifty glomeruli per section were randomly selected and evaluated using semi-quantitative scoring method as described in detail previously ([Maric et al., 2004]; [Gawrys et al., 2018]). Blind group allocation of the investigators was used.

[3] = test system: spontaneously hypertensive rats (SHR); assay: Chronic iv treatment, urinary albumin excretion (UAE); type: in vivo, rat; settings: mean ± SEM, n = 5
Description: (§2) Systolic and diastolic blood pressure (SBP and DBP, respectively) and heart rate (HR) were measured in conscious unrestrained rats by telemetry technique, once a week for 24 h. 24 hour observations in metabolic cages (Tecniplast S. p.A. Buguggiate, Italy) were performed weekly. The diuresis, weight of feces, food and water intake were measured; urine and blood samples were collected on day 0, 7th and 14th, and were centrifuged at 1200 g (blood for 15 min and urine for 5 min), then the samples were stored at –80°C until analysis.
(§3) On day 0 all animals received saline (0.9% NaCl) and then, for 14 consecutive days, the substance tested. Chymostatin (CH, 2 mg/kg/day) was dissolved in DMSO and then diluted with PBS (final concentration of DMSO was 0.15%). Peptides RIY (7.5 mg/kg/day) and VWIS (12.5 mg/kg/day) were dissolved in saline (0.9% NaCl, S). The substances were administered through the femoral vein during 10 min in the volume of 0.5 ml to young SHR (infusion rate: 3 ml/h) and 1 ml to adult rats (infusion rate: 6 ml/h). Control rats received solvents (either DMSO or saline) in the same volume.
(§4) Urine volume was determined by gravimetric method. Sodium and potassium concentration in urine and plasma were measured by flame photometry (PFP7/C, Jenway Ltd, Stone, United Kingdom). Urine and plasma osmolality were measured by freezing point depression (Osmomat® 030 M, Gonotec, Berlin, Germany). These parameters were used to determine the excretion rates of total solutes (UosmV), sodium (UNaV) and potassium (UKV). Commercially available ELISA kits were used to measure nitric oxide metabolites (NOx, SunRed, Shanghai) and albumin (Albumin, ICL, Portland) concentration in urine. Excretion rate of NOx (UNOxV) and albumin (UAE) were calculated.

[4] = test system: spontaneously hypertensive rats (SHR); assay: Left ventricular hypertrophy (LV/tibia) after chronic treatment; type: in vivo, rat; settings: after 14 days daily iv CH 2, RIY 7.5, VWIS 12.5 mg/kg/day, mean ± SEM, n = 5
Description: as §1

[5] = test system: spontaneously hypertensive rats (SHR); assay: Metabolic parameters in metabolic cages during chronic treatment; type: in vivo, rat; settings: mean ± SEM
Description: as §2, §3, §4

ACE = settings: ref Petrie et al., 2001; cited from earlier work
[6] = adult SHR (SHR-16), day 0 (baseline)
[7] = adult SHR (SHR-16), day 7 of daily iv treatment
[8] = adult SHR (SHR-16), day 14 of daily iv treatment
[9] = young SHR (SHR-6), day 0 (baseline)
[10] = young SHR (SHR-6), day 7 of daily iv treatment
[11] = young SHR (SHR-6), day 14 of daily iv treatment

CC(C)C[C@H](NC(=O)[C@@H](NC(=O)N[C@@H](Cc1ccccc1)C(=O)O)[C@@H]1CCN=C(N)N1)C(=O)N[C@H](C=O)Cc1ccccc1 [CH, chymostatin]
Mean blood pressure (MBP) after single intravenous infusion [1]: decreased significantly | glomerulosclerosis index (GSI) ([2]; adult SHR): 0.50 ± 0.07 | glomerulosclerosis index (GSI) ([2]; young SHR): 0.51 ± 0.07 | Urinary albumin excretion (UAE) ([3]; adult SHR, day 0 (baseline, saline)): 0.59 ± 0.33 mg/24h | Urinary albumin excretion (UAE) ([3]; adult SHR, day 7 of daily iv CH 2, RIY 7.5, VWIS 12.5 mg/kg/day): 0.41 ± 0.04 mg/24h | Urinary albumin excretion (UAE) ([3]; adult SHR, day 14 of daily iv CH 2, RIY 7.5, VWIS 12.5 mg/kg/day): 0.84 ± 0.32 mg/24h | Urinary albumin excretion (UAE) ([3]; young SHR, day 0 (baseline, saline)): 0.03 ± 0.01 mg/24h | Urinary albumin excretion (UAE) ([3]; young SHR, day 7 of daily iv CH 2, RIY 7.5, VWIS 12.5 mg/kg/day): 0.07 ± 0.01 mg/24h | Urinary albumin excretion (UAE) ([3]; young SHR, day 14 of daily iv CH 2, RIY 7.5, VWIS 12.5 mg/kg/day): 0.13 ± 0.03 mg/24h | left ventricular hypertrophy (LV/tibia) ([4]; adult SHR): 20.7 ± 2.6 mg/mm | left ventricular hypertrophy (LV/tibia) ([4]; young SHR): 16.7 ± 0.9 mg/mm | Body weight ([5]; adult SHR (SHR-16), day 0 (baseline), CH n=8, RIY n=5-6, VWIS n=5-6): 271 ± 16 g | Diuresis [5, 6]: 6.9 ± 1.9 µL/min | Faeces [5, 6]: 9±1 g/24 h | Food intake [5, 6]: 21±1 g/24 h | Water intake [5, 6]: 29±3 g/24 h | Body weight ([5]; adult SHR (SHR-16), day 7 of daily iv CH 2, RIY 7.5, VWIS 12.5 mg/kg/day): 285 ± 17 g | Diuresis [5, 7]: 7.4 ± 2.1 µL/min | Faeces [5, 7]: 8±1 g/24 h | Food intake [5, 7]: 17±1 g/24 h | Water intake [5, 7]: 29±3 g/24 h | Body weight ([5]; adult SHR (SHR-16), day 14 of daily iv CH 2, RIY 7.5, VWIS 12.5 mg/kg/day): 298 ± 19 g | Diuresis [5, 8]: 8.1 ± 2.9 µL/min | Faeces [5, 8]: 9±1 g/24 h | Food intake [5, 8]: 20±2 g/24 h | Water intake [5, 8]: 29±4 g/24 h | Body weight ([5]; young SHR (SHR-6), day 0 (baseline), CH n=8-10, RIY n=5, VWIS n=5-6): 131 ± 10 g | Diuresis [5, 9]: 6.1 ± 0.5 µL/min | Faeces [5, 9]: 7±1 g/24 h | Food intake [5, 9]: 15±1 g/24 h | Water intake [5, 9]: 23±2 g/24 h | Body weight ([5]; young SHR (SHR-6), day 7 of daily iv CH 2, RIY 7.5, VWIS 12.5 mg/kg/day): 159 ± 5 g | Diuresis [5, 10]: 9.9 ± 1.4 µL/min | Faeces [5, 10]: 11±1 g/24 h | Food intake [5, 10]: 18±2 g/24 h | Water intake [5, 10]: 29±5 g/24 h | Body weight ([5]; young SHR (SHR-6), day 14 of daily iv CH 2, RIY 7.5, VWIS 12.5 mg/kg/day): 196 ± 4 g | Diuresis [5, 11]: 10.0 ± 0.9 µL/min | Faeces [5, 11]: 12±1 g/24 h | Food intake [5, 11]: 20±2 g/24 h | Water intake [5, 11]: 32±3 g/24 h | block of ACE by chymostatin (ACE): does not block ACE
